Results taken from patent EP4299736A2, “HYDROLASES AND USES THEREOF” (Vilnius University, priority 2022, dated 2024).

Columns and labels:
Test in all cases: Spectrophotometric assay of hydrolytic activity (kinetic parameters)
Type in all cases: biochemical
[1] = tested on: hydrolase Seq ID No: 3 (metagenomic hydrolase); conditions: potassium phosphate buffer, pH 7.5, 22 °C
Description: (§1) For the spectrophotometric assay, the reaction was started by adding an appropriate amount of protein to potassium phosphate buffer, pH 7.5 supplemented with 0.3, 0.15, 0.1, 0.075, 0.05, 0.0375, 0.025, 0.0125 mM N^4-benzoyl-2'-deoxycytidine, or 1, 0.8, 0.5, 0.4, 0.25, 0.2, 0.1, 0.05 mM 2'-deoxycytidine. Then, decreases in absorbance at either 310 for N^4-benzoyl-2'-deoxycytidine or 290 nm for 2'-deoxycytidine were recorded at 22 °C. Kinetic parameters (Table x) were calculated using Imfit-py 1.0.2 software fitting the experimental data to a simple Michaelis-Menten kinetics scheme. Table 5. Kinetic parameters of hydrolases. Substrate: BzdC - N4-benzoyl-2'-deoxycytidine; dC-2'-deoxycytidine.

[2] = target: hydrolase Seq ID No: 1 (metagenomic, wild-type hydrolase) (uncultured bacterium, UniProt A0ACD6BAS6); conditions: potassium phosphate buffer, pH 7.5, 22 °C
hydrolase Seq ID No: 1 (metagenomic, wild-type hydrolase), sequence (A0ACD6BAS6 entry or part of it): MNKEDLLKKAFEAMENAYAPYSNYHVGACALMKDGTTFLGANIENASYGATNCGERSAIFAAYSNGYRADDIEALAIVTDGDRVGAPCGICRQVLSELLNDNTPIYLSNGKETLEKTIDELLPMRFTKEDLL
Description: as §1

[3] = target: hydrolase variant Seq ID No: 10 (site-directed mutant) (uncultured bacterium, UniProt A0ACD6BAS6, DEL127-130, form not given); conditions: potassium phosphate buffer, pH 7.5, 22 °C, 310 nm
hydrolase variant Seq ID No: 10 (site-directed mutant), sequence (A0ACD6BAS6 entry or part of it DEL127-130): as the sequence (A0ACD6BAS6 entry or part of it) above
Description: (§2) Mutations in the hydrolase's genes were introduced using methodology based on "Phusion™ Site-Directed Mutagenesis Kit" (Thermo Fisher Scientific). For specific mutagenesis, primer pairs meant to amplify the whole plasmid with the target protein gene, where one primer has miss-matched base pairs in the middle, were created (Fw/Rv): […]/[…] (SEQ ID NO:10); [formula] [formula] […]/[…] (SEQ ID NO:13); [formula] [formula] […]/[…] and […]/[…] (SEQ ID NO: 16, SEQ ID NO: 17, SEQ ID NO: 18); [formula] […]/[…] (SEQ ID NO: 21); [formula] […]/[…] (SEQ ID NO: 23); […]/[…] (SEQ ID NO: 24).
as §1

[4] = target: hydrolase variant Seq ID No:13 (site-directed mutant) (uncultured bacterium, UniProt A0ACD6BAS6, form not given/G85I); conditions: potassium phosphate buffer, pH 7.5, 22 °C; 310 nm (BzdC) or 290 nm (dC)
hydrolase variant Seq ID No:13 (site-directed mutant), sequence (A0ACD6BAS6 entry or part of it G85I, form open): as the sequence (A0ACD6BAS6 entry or part of it) above
Description: as §2, §1

[5] = target: hydrolase variant Seq ID No: 15 (site-directed mutant) (uncultured bacterium, UniProt A0ACD6BAS6); conditions: potassium phosphate buffer, pH 7.5, 22 °C, 310 nm (BzdC) or 290 nm (dC)
hydrolase variant Seq ID No: 15 (site-directed mutant), sequence (A0ACD6BAS6 entry or part of it, change not shown): as the sequence (A0ACD6BAS6 entry or part of it) above
Description: as §2, §1

[6] = target: hydrolase variant Seq ID No: 11 (site-directed mutant) (uncultured bacterium, UniProt A0ACD6BAS6); conditions: potassium phosphate buffer, pH 7.5, 22 °C, 310 nm
hydrolase variant Seq ID No: 11 (site-directed mutant), sequence (A0ACD6BAS6 entry or part of it, change not shown): as the sequence (A0ACD6BAS6 entry or part of it) above
Description: as §2, §1

[7] = target: hydrolase variant Seq ID No: 12 (site-directed mutant) (uncultured bacterium, UniProt A0ACD6BAS6); conditions: potassium phosphate buffer, pH 7.5, 22 °C; 310 nm; unit not given
hydrolase variant Seq ID No: 12 (site-directed mutant), sequence (A0ACD6BAS6 entry or part of it, change not shown): as the sequence (A0ACD6BAS6 entry or part of it) above
Description: as §2, §1

[8] = 310 nm (BzdC) or 290 nm (dC), unit not given
[9] = absorbance decrease at 310 nm (BzdC) or 290 nm (dC), Michaelis-Menten fit

## O=C(Nc1ccn([C@H]2C[C@H](O)[C@@H](CO)O2)c(=O)n1)c1ccccc1 [BzdC, N4-benzoyl-2'-deoxycytidine]
[1]; 310 nm (BzdC) or 290 nm (dC)
  kcat: (3.81 +/- 0.24) × 10 ^-1 s^-1
[1]; [8]
  Vmax: (6.55 ± 0.41) × 10^-5
[1]; [9]
  Km: 46.5 µM
[2]; 310 nm (BzdC) or 290 nm (dC)
  kcat: (5.04 ± 0.4) ×10^-1 s^-1
[2]; [8]
  Vmax: (1.00 ± 0.08) × 10^-4
[2]; [9]
  Km: 115 µM
[3]
  kcat: (5.41 ± 0.23) × 10^-2 s^-1
[3]; unit not given
  Vmax: (5.49 ± 0.23) × 10^-5
[4]
  kcat: (2.36 ± 0.01) × 10 ^-1 s^-1
[5]
  kcat: (1.22 ± 0.09) × 10^-2 s^-1
[5]; unit not given
  Vmax: (3.17 ± 0.25) × 10^-5
[6]
  kcat: (3.88 ± 0.80) × 10^-2 s^-1
[6]; unit not given
  Vmax: (4.56 ± 0.093) × 10^-5
[7]
  Vmax: (1.19 ± 0.15) × 10^-4
